Results reported in US11707442B2, “Antibacterial and antifungal compounds” (The General Hospital Corporation, priority 2015, dated 2023).
In brackets after ≈: the same amount, converted by molar mass. Entries after “also recorded” stand apart in the source; their conditions may differ. Where two headings read alike, the source gives them in different places.

Tests used:
[1] = tested on: E. aerogenes ATCC 13048; assay: MIC, broth microdilution; format: cell-based, Enterobacter aerogenes; details: Klebsiella aerogenes, ATCC13048; E. aerogenes ATCC 13048; read-out: Minimum inhibitory concentration
Text: (§1) Bacterial strains and growth conditions and persister isolation: methicillin-resistant S. aureus (MRSA) strain MW2 BAA-1707, vancomycin-resistant S. aureus strain VRS 1, 11 clinical S. aureus isolates, 8 clinical Enterococcus faecium isolates, Klebsiella pneumoniae WGLW2 (BEI Resources, Manassas, Va., USA), Acinetobacter baumannii ATCC 17978, Pseudomonas aeruginosa PA14, and Enterobacter aerogenes ATCC 13048 were used to test antimicrobial activity (See Table 1a). S. aureus and E. faecium strains were grown in tryptic soy broth (TSB) (BD, Franklin Lakes, N.J., USA) or brain-heart infusion (BHI) broth (BD, Franklin Lakes, N.J., USA), respectively at 37° C. at 225 rpm. K. pneumoniae, A. baumannii, P. aeruginosa, and E. aerogenes were grown in Luria Bertani (LB) broth (BD, Franklin Lakes, N.J., USA).
(§2) To test the bacterial MICs for compounds described herein, the total volume in each well was 100 μl of test compounds and bacterial cells in MH broth. […] The bacterial concentration was adjusted to an initial OD600 of 0.03. After incubation at 35° C. for 18 hrs, the absorbance was measured at 595 nm in accordance with CLSI document M07-A8. The MICs of antibiotics were determined by the standard microdilution method recommended by the Clinical and Laboratory Standards Institute.

[2] = tested on: S. aureus; assay: Minimal inhibitory concentration (MIC), broth microdilution; format: cell-based, Staphylococcus aureus; details: for MIC: Staphylococcus aureus
Text: as §1, §2

[3] = tested on: K. pneumonia WGLW2; assay: MIC, broth microdilution; format: cell-based, Klebsiella pneumoniae; details: Klebsiella pneumoniae; K. pneumonia WGLW2; read-out: Minimum inhibitory concentration
Text: as §1, §2

[4] = tested on: P. aeruginosa; assay: MIC, broth microdilution; format: cell-based, Pseudomonas aeruginosa; details: Pseudomonas aeruginosa; P. aeruginosa PA14; read-out: Minimum inhibitory concentration
Text: as §1, §2

[5] = tested on: A. baumannii; assay: MIC, broth microdilution; format: cell-based, Acinetobacter baumannii; details: Acinetobacter baumannii, ATCC17978; A. baumannii ATCC 17978; read-out: Minimum inhibitory concentration
Text: as §1, §2

[6] = tested on: E. faecium; assay: MIC, broth microdilution; format: cell-based, Enterococcus faecium; details: for MIC: Enterococcus faecium
Text: as §1, §2

[7] = tested on: C. elegans infected with MRSA strain MW2; format: in vivo; details: result in words
Method: The C. elegans-MRSA liquid infection assay has been described (Rajamuthiah et al. Plos One. 2014; 9(2):e89189). In brief, 4,500 glp-4 (bn2); sek-1(km4) L1 hatchlings were grown on SK-HB101 agar plates for 52 hours at the restrictive temperature of 25° C. until animals became sterile young adults and later harvested with M9 buffer. S. aureus MW2 was grown overnight at 37° C. in TSB, first under aerobic conditions and later shifted to anaerobic growth conditions at 37° C. The infection assay was performed in standard 384-well assay plates, in the presence of the compound being tested or 1% dimethyl sulfoxide (DMSO) as a control. Bacteria were added to the wells at a final OD600 of 0.06, followed by the use of a Complex Object Parametric Analyzer and Sorter (COPAS) large particle sorter (Union Biometrica, Holliston, Mass., USA) to transfer 15 adult worms to each well of an assay plate. After 5 days of incubation in a humidified chamber at 25° C., the bacteria and other debris were washed from the wells with a microplate washer and the worms were stained with the vital dye Sytox Orange (Life Technologies). After overnight incubation at 25° C. in a humidified chamber, the plates were imaged using an Image Xpress Micro automated microscope (Molecular Devices, Sunnyvale, Calif., USA), capturing both transmitted light and TRITC (535 nm excitation, 610 nm emission) fluorescent images with a 2× objective. The images from the infection assay were processed using the open source image analysis software CellProfiler and analysis modules as described previously. The ratio of Sytox worm area to bright field worm area, and the resultant percentage survival data, is calculated by the software for each well of the assay plates. The assay was performed in triplicate comparing the survival of worms at various concentrations of drugs.
Killing assays were carried out as described in Methods using S. aureus MRSA MW2 and 10 μg/ml retinoids, 10 μg/ml vancomycin (positive control), or 1% DMSO (negative control) at 25° C. for 5 days. Data are representative of three independent experiments. (B) Chemical structures of synthetic retinoids. (C) Growth of MRSA strain MW2 exposed to the indicated concentrations of compounds was quantified by measuring OD600 after 18 h in tryptic soy broth (TSB). (D) C. elegans infected with MRSA strain MW2 was treated with indicated concentrations of compounds. Percent survival of C. elegans was normalized to C. elegans treated with DMSO. (E-F) MRSA persisters prepared as described in Methods were treated with the indicated concentrations of each retinoid. Viability was measured by serial dilution and plating on TSA plates. The data points on the x-axis are below the level of detection (2×10^2 CFU/ml). (E,F) Results are shown as means±s.d.; n=3.

[8] = tested on: E. faecalis; assay: MIC, broth microdilution; format: cell-based, Enterococcus faecalis; details: result in words
Method: To test the bacterial MICs for compounds described herein, the total volume in each well was 100 μl of test compounds and bacterial cells in MH broth. Two-fold serial dilutions were carried out to get compounds in the concentration range 0.0625-64 μg/ml. The bacterial concentration was adjusted to an initial OD600 of 0.03. After incubation at 35° C. for 18 hrs, the absorbance was measured at 595 nm in accordance with CLSI document M07-A8. The MICs of antibiotics were determined by the standard microdilution method recommended by the Clinical and Laboratory Standards Institute.

Cc1onc(-c2ccccc2)c1C(=O)N[C@@H]1C(=O)N2[C@@H]1SC(C)(C)[C@@H]2C(=O)O [Oxacillin]
MIC [1]: > 64 µg/mL
MIC ([2]; S. aureus BF1, read-out: Minimum inhibitory concentration): > 64 µg/mL
MIC ([2]; S. aureus BF2, read-out: Minimum inhibitory concentration): > 64 µg/mL
MIC ([2]; S. aureus BF3, read-out: Minimum inhibitory concentration): 32 µg/mL (≈ 79.7 µM)
MIC ([2]; S. aureus BF4, read-out: Minimum inhibitory concentration): 16 µg/mL (≈ 39.9 µM)
MIC ([2]; S. aureus BF5, read-out: Minimum inhibitory concentration): > 64 µg/mL
MIC ([2]; S. aureus BF6, read-out: Minimum inhibitory concentration): 1 µg/mL (≈ 2.49 µM)
MIC ([2]; S. aureus BF7, read-out: Minimum inhibitory concentration): > 64 µg/mL
MIC ([2]; S. aureus BF8, read-out: Minimum inhibitory concentration): > 64 µg/mL
MIC ([2]; S. aureus BF9, read-out: Minimum inhibitory concentration): 0.25 µg/mL (≈ 0.623 µM)
MIC ([2]; S. aureus BF10, read-out: Minimum inhibitory concentration): > 64 µg/mL
MIC ([2]; S. aureus BF11, read-out: Minimum inhibitory concentration): > 64 µg/mL
MIC ([2]; S. aureus MW2, read-out: Minimum inhibitory concentration): 64 µg/mL (≈ 159 µM)
MIC ([2]; S. aureus VRS1, read-out: Minimum inhibitory concentration): > 64 µg/mL
MIC ([2]; Staphylococcus aureus clinical isolate BF1 (Table 5), read-out: Drug MIC): > 64 µg/mL
MIC ([2]; Staphylococcus aureus clinical isolate BF2 (Table 5), read-out: Drug MIC): > 64 µg/mL
MIC ([2]; Staphylococcus aureus clinical isolate BF3 (Table 5), read-out: Drug MIC): 32 µg/mL (≈ 79.7 µM)
MIC ([2]; Staphylococcus aureus clinical isolate BF4 (Table 5), read-out: Drug MIC): 16 µg/mL (≈ 39.9 µM)
MIC ([2]; Staphylococcus aureus clinical isolate BF5 (Table 5), read-out: Drug MIC): > 64 µg/mL
MIC ([2]; Staphylococcus aureus clinical isolate BF6 (Table 5), read-out: Drug MIC): 1 µg/mL (≈ 2.49 µM)
MIC ([2]; Staphylococcus aureus clinical isolate BF7 (Table 5), read-out: Drug MIC): > 64 µg/mL
MIC ([2]; Staphylococcus aureus clinical isolate BF8 (Table 5), read-out: Drug MIC): > 64 µg/mL
MIC ([2]; Staphylococcus aureus clinical isolate BF9 (Table 5), read-out: Drug MIC): 0.25 µg/mL (≈ 0.623 µM)
MIC ([2]; Staphylococcus aureus clinical isolate BF10 (Table 5), read-out: Drug MIC): > 64 µg/mL
MIC ([2]; Staphylococcus aureus clinical isolate BF11 (Table 5), read-out: Drug MIC): > 64 µg/mL
MIC [3]: > 64 µg/mL
MIC [4]: > 64 µg/mL
MIC [5]: > 64 µg/mL
MIC ([6]; E. faecium C68, read-out: Minimum inhibitory concentration): > 64 µg/mL
MIC ([6]; E. faecium D14, read-out: Minimum inhibitory concentration): > 64 µg/mL
MIC ([6]; E. faecium D24, read-out: Minimum inhibitory concentration): > 64 µg/mL
MIC ([6]; E. faecium D25, read-out: Minimum inhibitory concentration): > 64 µg/mL
MIC ([6]; E. faecium D29, read-out: Minimum inhibitory concentration): > 64 µg/mL
MIC ([6]; E. faecium E007, read-out: Minimum inhibitory concentration): > 64 µg/mL
MIC ([6]; E. faecium WB213, read-out: Minimum inhibitory concentration): > 64 µg/mL
MIC ([6]; E. faecium WC176, read-out: Minimum inhibitory concentration): > 64 µg/mL
MIC ([6]; Enterococcus faecium clinical isolate C68 (Table 6), read-out: Drug MIC): > 64 µg/mL
MIC ([6]; Enterococcus faecium clinical isolate D14 (Table 6), read-out: Drug MIC): 2 µg/mL (≈ 4.98 µM)
MIC ([6]; Enterococcus faecium clinical isolate D24 (Table 6), read-out: Drug MIC): 1 µg/mL (≈ 2.49 µM)
MIC ([6]; Enterococcus faecium clinical isolate D25 (Table 6), read-out: Drug MIC): 1 µg/mL (≈ 2.49 µM)
MIC ([6]; Enterococcus faecium clinical isolate D29 (Table 6), read-out: Drug MIC): 2 µg/mL (≈ 4.98 µM)
MIC ([6]; Enterococcus faecium clinical isolate W312 (Table 6), read-out: Drug MIC): > 64 µg/mL
MIC ([6]; Enterococcus faecium clinical isolate WC176 (Table 6), read-out: Drug MIC): > 64 µg/mL

COc1ccc(-c2ccc3cc(C(=O)O)ccc3c2)cc1C12CC3CC(CC(C3)C1)C2 [Adapalene, 6-(4-methoxy-3-tricyclo[3.3.1.13,7]dec-1-ylphenyl)-2-naphthalenecarboxylic acid]
direct inhibition of MRSA growth ([2]; MRSA MW2, result in words): did not inhibit; also recorded: did not have significant antimicrobial activity
rescue of C. elegans from MRSA infection [7]: nor did it protect
susceptibility of E. faecalis [8]: not inhibited
susceptibility of E. faecium ([6]; result in words): not inhibited
